# Data published in patent US20160109438A1, “PROTEASE-RESPONSIVE PEPTIDE BIOSENSORS AND METHODS FOR ANALYTE DETECTION” (AGENCY FOR SCIENCE, TECHNOLOGY AND RESEARCH, priority 2013, published 2016).
# B1: mutant p53 peptide with critical residues mutated to alanine (ETASDLAKLAP) (peptide)
# peptide: ETASDLAKLAP
# notes: Synthetic negative control peptide; also called peptide C
# Columns and labels:
# [1] = molecular target: HA antibody (clone not named, FIG. 3B and FIG. 8B); experiment: cell-based or functional assay
# [2] = test system: HA antibody; experiment: Thrombin-HA protease exclusion sensor; assay type: biochemical
# From the text: An HA-antibody binds to the HA epitope ([…]; SEQ ID NO:3). The Binding of an anti-HA antibody to its epitope would disallow protease, access to its recognition site due to steric obstruction by the higher affinity HA antibody. Addition of excess HA peptide should sequester the HA antibody, leading to renewed protease access to its recognition site, bringing about increased enzyme activity in response to the HA peptide. […] Starting from the left, the rate of substrate turnover is shown after 0 nM, 4 nM, 40 nM, 400 nM and 4000 nM addition of free HA peptide to the tested sensor.
# [3] = test system: HA antibody / HA epitope; experiment: HA-enterokinase sensor assay; assay type: biochemical; conditions: 0 nM, 4 nM, 40 nM, 400 nM and 4000 nM; enterokinase and HA antibody present
# [4] = molecular target: Mdm2 N-terminal domain (Homo sapiens, UniProt Q00987); experiment: Protease exclusion sensor using fluorescence labeled internally quenched peptide (P1); conditions: for response of the peptide sensor (rate of fluorescence increase): various concentrations, with enterokinase and Mdm2
# [5] = molecular target: T1, Mdm2 (Homo sapiens, UniProt Q00987); experiment: Mdm2-enterokinase sensor assay; assay type: biochemical; conditions: for substrate turnover (time course): sensor with enterokinase and mdm2, compared with DMSO only
# T1 construct: derived from N-terminal domain (amino acids 18-125) of wild type Mdm2 protein; 10x His; made in house; host or cells: E. coli
# Procedure: Nutlin was used as the positive control and a mutant p53 peptide, which cannot bind to Mdm2 was used as the negative control. The reaction was monitored using absorbance measurements at OD492 on a Perkin Elmer plate reader every 2 min. The signal was calculated from reading 5 minus reading 3. This assay was repeated three times and the average gradient value with standard error was reported.
# The screening was divided into two steps. In the first step, the screening was carried out at the fixed compound concentration of […]. In the second step, a dose-response experiment of different hits found in the first step was conducted. […] The OD492 value of read number 3 was subtracted from that of read number 5 (OD492 readings were taken every 2 min) which was designated as signal. […] Fold change=Gradient of Hits (Reading 5−Reading 3)/Gradient of control (Reading 5−Reading 3)
# [6] = molecular target: T2, Mdm2 N-terminal domain (amino acids 18-125) of wild type Mdm2 protein engineered with 10x His tag (UniProt Q00987 18-125); experiment: Mdm2-enterokinase sensor assay, substrate turnover at OD492
# T2 construct: range 18-125; expressed in E. coli; also called Mdm2 N-terminus; Mdm2 N terminus
# T2 sequence (Q00987 18-125 limits assumed, change not shown): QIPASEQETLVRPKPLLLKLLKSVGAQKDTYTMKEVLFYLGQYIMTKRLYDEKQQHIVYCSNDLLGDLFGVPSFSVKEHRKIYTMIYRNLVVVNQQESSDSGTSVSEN
# Chain of Mdm2 N-terminal domain (Q00987 18-125): as the sequence (Q00987 18-125 limits assumed, change not shown) above
# T1 sequence (Q00987 18-125, species assumed): as the sequence (Q00987 18-125 limits assumed, change not shown) above
molecule,measurement,setting,value
free HA peptide,HA peptide concentration with the highest substrate turnover (thrombin-HA protease exclusion sensor),[1],400 nM
"HA peptide: free peptide of the influenza hemagglutinin (HA) epitope, sequesters the HA antibody",rate of substrate turnover,"[2]; thrombin and HA antibody, varying amounts of free peptide",increases with increasing amount
same,amount of peptide giving the highest substrate turnover,[2]; thrombin-HA protease exclusion sensor,400 nM
same,substrate turnover after addition of free HA peptide,[3],concentration-dependent increase of substrate turnover
Nutlin,detectable concentrations,[4]; signal to noise ratio ~5-6x,low micromolar
same,response of the peptide sensor (rate of fluorescence increase),[4],strong response
same,substrate turnover (time course),[5],substrate turnover increases substantially
same,rate of turnover of substrate in response to various amounts,[5]; various amounts of competitor,increased turnover signal
O=c1[nH]cc(F)c(=O)[nH]1 [5 FU],substrate turnover (time course),[5],does not lead to increased turnover
ETASDLAKLAP (mutated p53 peptide) [mutant p53 peptide],response of the peptide sensor (rate of fluorescence increase),[4],not
same,substrate turnover (time course),[5],does not lead to increased turnover
B1,binding result,[6],no binding
